In brackets after ≈: the same amount, converted by molar mass.
Assays:
Assay type in all cases: cell-based
[1] = test system: Streptococcus pneumoniae (MTCC 2672); assay: Disc diffusion method (zone of inhibition)
Protocol: (§1) […] LABS PVT. LTD. at its pre-clinical facility based at Chennai by Study No.: AMOX-538-09. The study report was generated on 1Mar. 2010. The study was conducted as per the approved study protocol.
(§2) The test substances used were three formulations, Formulation I, Formulation II and Formulation III prepared in accordance with Example 1, Example 2 and Example 3 respectively. […] The preparations and the method of the study were as per the approved protocol.
(§3) The sensitivity of the test substances and the reference standards were interpreted as per the CLSI zone diameter interpretive standards shown in Table 3.

[2] = test system: Streptococcus pyogenes (MTCC 442); assay: Disc diffusion method (zone of inhibition)
Protocol: as §1, §2, §3

[3] = test system: Streptococcus pneumoniae (MTCC 2672); assay: Broth macrodilution method (MIC); details: MTCC2672, individual drug alone, read-out: MIC (μg/ml) against Streptococcus pneumoniae
Protocol: as §1, §2

[4] = test system: Streptococcus pyogenes (MTCC 442); assay: Broth macrodilution method (MIC); details: MTCC442, individual drug alone, read-out: MIC (μg/ml) against Streptococcus pyogenes
Protocol: as §1, §2

MIC [3]: 0.063 µg/mL (≈ 0.172 µM) | MIC [4]: 0.031 µg/mL (≈ 0.0848 µM)
Compound: CC1(C)S[C@@H]2[C@H](NC(=O)[C@H](N)c3ccc(O)cc3)C(=O)N2[C@H]1C(=O)O [Amoxycillin]
Zone Diameter Range (mm) S. pneumoniae ([1]; 8 μg/disc): 33-36 mm | Zone Diameter Range (mm) S. pneumoniae ([1]; 16 μg/disc): 34-36 mm | Zone Diameter Range (mm) S. pneumoniae ([1]; 32 μg/disc): 37-38 mm | Zone Diameter Range (mm) S. pyogenes ([2]; 8 μg/disc): 32-33 mm | Zone Diameter Range (mm) S. pyogenes ([2]; 16 μg/disc): 34-36 mm | Zone Diameter Range (mm) S. pyogenes ([2]; 32 μg/disc): 37-39 mm

Source: patent US20130131033A1, “PHARMACEUTICAL COMPOSITION FOR TREATMENT OF RESPIRATORY TRACT INFECTIONS” (priority 2010, published 2013)
